# Data: ChEMBL document CHEMBL4765275, “Discovery of novel tertiary amide derivatives as NEDDylation pathway activators to inhibit the tumor progression in vitro and in vivo” (Eur J Med Chem, 2020)
# Calls of active or inactive are those of the source. No cut-off for these calls is given here.
# Tests used:
# MGC-803 [1] = assay: Antiproliferative activity against human MGC-803 cells assessed as cell viability measured after 48 hrs by MTT assay relative to control; assay type: functional
# MGC-803 [2] = assay: Induction of apoptosis in human MGC-803 cells assessed as viable cells at 75 nmol/L measured after 48 hrs by Annexin V-FITC/propidium iodide staining based flow cytometry (reference value: 91.7%); assay type: functional; details: read-out: Activity
# MGC-803 [3] = assay: Induction of morphological changes in human MGC-803 cells assessed as nuclear fragmentation at 50 to 150 nmol/L measured after 48 hrs by DAPI staining based assay; assay type: functional, cell-based; details: dose 50-150 nmol/L
# MGC-803 [4] = assay: Induction of apoptosis in human MGC-803 cells assessed as late apoptotic cells at 150 nmol/L measured after 48 hrs by Annexin V-FITC/propidium iodide staining based flow cytometry (reference value: 5.6%); assay type: functional
# MGC-803 [5] = assay: Induction of apoptosis in human MGC-803 cells assessed as upregulation of FADD expression at 50 to 150 nmol/L measured after 48 hrs by Western blot analysis; assay type: functional, cell-based; details: dose 50-150 nmol/L
# MGC-803 [6] = assay: Induction of apoptosis in human MGC-803 cells assessed as late apoptotic cells at 100 nmol/L measured after 48 hrs by Annexin V-FITC/propidium iodide staining based flow cytometry (reference value: 5.6%); assay type: functional
# MGC-803 [7] = assay: Antitumor activity against human MGC-803 cells xenografted in mouse assessed as reduction in tumor weight at 100 mg/kg, sc measured after 28 days relative to control; assay type: functional; design: scale not given: the % may be the effect or the level left; details: time 28 day
# MGC-803 [8] = assay: Antitumor activity against human MGC-803 cells xenografted in mouse assessed as reduction in tumor weight at 150 mg/kg, sc measured after 28 days relative to control; assay type: functional; design: scale not given: the % may be the effect or the level left; details: time 28 day
# MGC-803 [9] = assay: Induction of apoptosis in human MGC-803 cells assessed as viable cells at 150 nmol/L measured after 48 hrs by Annexin V-FITC/propidium iodide staining based flow cytometry (reference value: 91.7%); assay type: functional; details: read-out: Activity
# [10] = biological target: T1, NEDD8-activating enzyme E1 regulatory subunit (Homo sapiens) (UniProt Q13564); assay: Activation of NAE1-mediated neddylation in human MGC-803 cells assessed as increase in Nedd8 neddylation at 50 to 150 nmol/L measured after 24 hrs by Western blot analysis; assay type: cell-based; details: filed as activator, dose 50-150 nmol/L
# T1 sequence (whole entry): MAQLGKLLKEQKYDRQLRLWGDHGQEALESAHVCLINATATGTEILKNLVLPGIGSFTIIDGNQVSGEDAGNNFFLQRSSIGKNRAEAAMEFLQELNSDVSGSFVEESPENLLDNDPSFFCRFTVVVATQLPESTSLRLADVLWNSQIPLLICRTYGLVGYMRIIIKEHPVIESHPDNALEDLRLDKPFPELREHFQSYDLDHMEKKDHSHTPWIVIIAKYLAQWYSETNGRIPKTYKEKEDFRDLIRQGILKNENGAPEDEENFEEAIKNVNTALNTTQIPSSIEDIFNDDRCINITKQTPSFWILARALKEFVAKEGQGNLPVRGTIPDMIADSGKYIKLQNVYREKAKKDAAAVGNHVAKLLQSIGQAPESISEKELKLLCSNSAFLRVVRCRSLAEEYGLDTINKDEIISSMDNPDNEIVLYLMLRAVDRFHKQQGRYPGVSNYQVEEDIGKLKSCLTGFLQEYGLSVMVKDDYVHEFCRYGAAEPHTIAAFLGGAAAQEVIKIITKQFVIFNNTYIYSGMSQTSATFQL
# MGC-803 [11] = assay: Induction of apoptosis in human MGC-803 cells assessed as upregulation of PIDD expression at 50 to 150 nmol/L measured after 48 hrs by Western blot analysis; assay type: functional, cell-based; details: dose 50-150 nmol/L
# MGC-803 [12] = assay: Cell cycle arrest in human MGC-803 cells assessed as accumulation at G2 phase at 50 nmol/L measured after 48 hrs by propidium iodide staining based flow cytometry (reference value: 24.91%); assay type: functional
# MGC-803 [13] = assay: Induction of apoptosis in human MGC-803 cells assessed as increase in activated caspase-8 expression at 50 to 150 nmol/L measured after 48 hrs by Western blot analysis; assay type: functional, cell-based; details: dose 50-150 nmol/L
# MGC-803 [14] = assay: Induction of morphological changes in human MGC-803 cells assessed as increase in cell debris at 50 to 150 nmol/L measured after 48 hrs by bright field microscopic analysis; assay type: functional, cell-based; details: dose 50-150 nmol/L
# [15] = biological target: T1, NEDD8-activating enzyme E1 regulatory subunit (Homo sapiens); assay: Activation of NAE1-mediated neddylation in human MGC-803 cells assessed as increase in Nedd8-[…] adduct formation at 50 to 150 nmol/L measured after 24 hrs by Western blot analysis; assay type: cell-based; details: filed as activator, dose 50-150 nmol/L
# [16] = biological target: T1, NEDD8-activating enzyme E1 regulatory subunit (Homo sapiens); assay: Activation of NAE1-mediated neddylation in human MGC-803 cells assessed as increase in Nedd8-[…] adduct formation at 50 to 500 nmol/L measured after 30 mins in presence of ATP by Western blot analysis; assay type: cell-based; details: filed as activator, dose 50-500 nmol/L
# MGC-803 [17] = assay: Induction of apoptosis in human MGC-803 cells assessed as viable cells at 100 nmol/L measured after 48 hrs by Annexin V-FITC/propidium iodide staining based flow cytometry (reference value: 91.7%); assay type: functional; details: read-out: Activity
# MGC-803 [18] = assay: Induction of apoptosis in human MGC-803 cells assessed as down regulation of c-IAP1 expression at 150 nmol/L measured after 24 hrs in presence of NEDDylation inhibitor MLN4924 by Western blot analysis; assay type: functional, cell-based
# MGC-803 [19] = assay: Induction of apoptosis in human MGC-803 cells assessed as necrotic cells at 75 nmol/L measured after 48 hrs by Annexin V-FITC/propidium iodide staining based flow cytometry (reference value: 0.5%); assay type: functional
# MGC-803 [20] = assay: Induction of apoptosis in human MGC-803 cells assessed as down regulation of XIAP expression at 150 nmol/L measured after 24 hrs in presence of NEDDylation inhibitor MLN4924 by Western blot analysis; assay type: functional, cell-based
# PC-3 = assay: Antiproliferative activity against human PC-3 cells measured after 48 hrs by MTT assay; assay type: functional, cell-based; details: PC-3, 48 h
# [21] = biological target: T1, NEDD8-activating enzyme E1 regulatory subunit (Homo sapiens); assay: Activation of NAE1-mediated neddylation in human MGC-803 cells assessed as increase in Nedd8-CUL1 adduct formation at 50 to 150 nmol/L measured after 24 hrs by Western blot analysis; assay type: cell-based; details: filed as activator, dose 50-150 nmol/L
# MGC-803 [22] = assay: Toxicity in human MGC-803 cells xenografted mouse assessed as change in body weight at 50 to 150 mg/kg, sc measured after 28 days; assay type: organism-based; details: in vivo, 672 h, dose 50-150 mg/kg, time 28 day
# MGC-803 [23] = assay: Induction of apoptosis in human MGC-803 cells assessed as down regulation of Bcl-xL expression at 50 to 150 nmol/L measured after 48 hrs by Western blot analysis; assay type: functional, cell-based; details: dose 50-150 nmol/L
# MGC-803 [24] = assay: Antitumor activity against human MGC-803 cells xenografted in mouse assessed as reduction in tumor weight at 50 mg/kg, sc measured after 28 days relative to control; assay type: functional; design: scale not given: the % may be the effect or the level left; details: time 28 day
# MGC-803 [25] = assay: Induction of apoptosis in human MGC-803 cells assessed as down regulation of c-IAP1 expression at 150 nmol/L measured after 24 hrs in presence of proteasome inhibitor […] by Western blot analysis; assay type: functional, cell-based
# MGC-803 [26] = assay: Induction of apoptosis in human MGC-803 cells assessed as down regulation of Bcl-2 expression at 50 to 150 nmol/L measured after 48 hrs by Western blot analysis; assay type: functional, cell-based; details: dose 50-150 nmol/L
# MGC-803 [27] = assay: Induction of apoptosis in human MGC-803 cells assessed as upregulation of Fasl expression at 50 to 150 nmol/L measured after 48 hrs by Western blot analysis; assay type: functional, cell-based; details: dose 50-150 nmol/L
smiles,measurement,setting,value
COc1ccc(CN(C(=O)Cc2cccs2)c2cc(OC)c(OC)c(OC)c2)cc1,Activity,MGC-803 [1],12.1%
same,viability at 0.075 µM,MGC-803 [2],74.4%
same,Activity,MGC-803 [3],Active
same,Activity,MGC-803 [4],47.6%
same,Activity,MGC-803 [5],Active
same,Activity,MGC-803 [6],23.2%
same,Activity,MGC-803 [7],42%
same,Activity,MGC-803 [8],46%
same,viability at 0.15 µM,MGC-803 [9],8.6%
same,Activity,[10],Active
same,Activity,MGC-803 [11],Active
same,Activity,MGC-803 [12],35.12%
same,Activity,MGC-803 [13],Active
same,Activity,MGC-803 [14],Active
same,Activity,[15],Active
same,Activity,[16],Active
same,viability at 0.1 µM,MGC-803 [17],32%
same,Activity,MGC-803 [18],inactive
same,Activity,MGC-803 [19],2%
same,Activity,MGC-803 [20],Active
same,IC50,PC-3,1.15 µM
same,Activity,[21],Active
same,Activity,MGC-803 [22],Non-Toxic
same,Activity,MGC-803 [23],Active
same,Activity,MGC-803 [24],36%
same,Activity,MGC-803 [25],inactive
same,Activity,MGC-803 [26],Active
same,Activity,MGC-803 [27],Active
